Results as given in a compilation of properties of binary mixtures (doi:10.1016/j.molliq.2022.119918).

Experiment: xn = mol fraction of the nth substance listed
Settings: 100 kPa

CS(C)=O + NC(C)C(=O)[O-].COCCCCN1C=[N+](C=C1)C
viscosity (288.15 K, x2 = 0): 2.47 mPa·s | viscosity (293.15 K, x2 = 0): 2.21 mPa·s | viscosity (298.15 K, x2 = 0): 1.99 mPa·s | viscosity (303.15 K, x2 = 0): 1.81 mPa·s | viscosity (313.15 K, x2 = 0): 1.51 mPa·s | viscosity (318.15 K, x2 = 0): 1.39 mPa·s

COCCCC[n+]1ccn(C)c1.NCC(=O)[O-] + CS(C)=O
viscosity (288.15 K, x1 = 0.1009): 7.64 mPa·s | viscosity (288.15 K, x1 = 0.1984): 11.87 mPa·s | viscosity (288.15 K, x1 = 0.299): 20.11 mPa·s | viscosity (288.15 K, x1 = 0.3986): 32.75 mPa·s | viscosity (288.15 K, x1 = 0.6006): 66.91 mPa·s | viscosity (288.15 K, x1 = 0.701): 88.2 mPa·s | viscosity (288.15 K, x1 = 0.7941): 112 mPa·s | viscosity (288.15 K, x1 = 0.907): 149.9 mPa·s | viscosity (288.15 K, x1 = 1): 180.6 mPa·s | viscosity (293.15 K, x1 = 0.1009): 6.23 mPa·s | viscosity (293.15 K, x1 = 0.1984): 9.49 mPa·s | viscosity (293.15 K, x1 = 0.299): 15.68 mPa·s | viscosity (293.15 K, x1 = 0.3986): 24.97 mPa·s | viscosity (293.15 K, x1 = 0.701): 66.19 mPa·s | viscosity (293.15 K, x1 = 0.907): 110.8 mPa·s | viscosity (293.15 K, x1 = 1): 130.1 mPa·s | viscosity (298.15 K, x1 = 0.1009): 5.05 mPa·s | viscosity (298.15 K, x1 = 0.1984): 7.6 mPa·s | viscosity (298.15 K, x1 = 0.299): 12.46 mPa·s | viscosity (298.15 K, x1 = 0.3986): 19.85 mPa·s | viscosity (298.15 K, x1 = 0.4986): 29.5 mPa·s | viscosity (298.15 K, x1 = 0.6006): 40.49 mPa·s | viscosity (298.15 K, x1 = 0.701): 52.63 mPa·s | viscosity (298.15 K, x1 = 0.907): 83.6 mPa·s | viscosity (303.15 K, x1 = 0.1984): 6.27 mPa·s | viscosity (303.15 K, x1 = 0.3986): 15.9 mPa·s | viscosity (303.15 K, x1 = 0.4986): 23.66 mPa·s | viscosity (303.15 K, x1 = 0.6006): 32.57 mPa·s | viscosity (303.15 K, x1 = 0.701): 42.38 mPa·s | viscosity (303.15 K, x1 = 0.7941): 52.54 mPa·s | viscosity (303.15 K, x1 = 0.907): 65.49 mPa·s | viscosity (303.15 K, x1 = 1): 74.4 mPa·s | viscosity (308.15 K, x1 = 0.1984): 5.29 mPa·s | viscosity (308.15 K, x1 = 0.3986): 13.2 mPa·s | viscosity (308.15 K, x1 = 0.4986): 19.51 mPa·s | viscosity (308.15 K, x1 = 0.6006): 26.99 mPa·s | viscosity (308.15 K, x1 = 0.7941): 42.67 mPa·s | viscosity (308.15 K, x1 = 0.907): 52.32 mPa·s | viscosity (308.15 K, x1 = 1): 58.09 mPa·s | viscosity (313.15 K, x1 = 0.1009): 3.15 mPa·s | viscosity (313.15 K, x1 = 0.1984): 4.59 mPa·s | viscosity (313.15 K, x1 = 0.299): 7.18 mPa·s | viscosity (313.15 K, x1 = 0.3986): 11.14 mPa·s | viscosity (313.15 K, x1 = 0.4986): 16.4 mPa·s | viscosity (313.15 K, x1 = 0.6006): 22.63 mPa·s | viscosity (313.15 K, x1 = 0.701): 29.37 mPa·s | viscosity (313.15 K, x1 = 0.7941): 35.24 mPa·s | viscosity (313.15 K, x1 = 0.907): 42.06 mPa·s | viscosity (313.15 K, x1 = 1): 46.29 mPa·s | viscosity (318.15 K, x1 = 0.1984): 3.92 mPa·s | viscosity (318.15 K, x1 = 0.299): 6.04 mPa·s | viscosity (318.15 K, x1 = 0.3986): 9.3 mPa·s | viscosity (318.15 K, x1 = 0.4986): 13.46 mPa·s | viscosity (318.15 K, x1 = 0.6006): 18.67 mPa·s | viscosity (318.15 K, x1 = 0.701): 23.75 mPa·s | viscosity (318.15 K, x1 = 0.7941): 28.16 mPa·s | viscosity (318.15 K, x1 = 0.907): 32.95 mPa·s | viscosity (318.15 K, x1 = 1): 36.43 mPa·s

CC(N)C(=O)[O-].COCCCCn1cc[n+](C)c1 + CS(C)=O
viscosity (288.15 K, x1 = 0.1009): 8.27 mPa·s | viscosity (288.15 K, x1 = 0.3985): 40.5 mPa·s | viscosity (288.15 K, x1 = 0.4922): 63.89 mPa·s | viscosity (288.15 K, x1 = 0.6966): 135.6 mPa·s | viscosity (288.15 K, x1 = 0.7973): 203 mPa·s | viscosity (288.15 K, x1 = 1): 403 mPa·s | viscosity (293.15 K, x1 = 0.1009): 7.89 mPa·s | viscosity (293.15 K, x1 = 0.3985): 31.54 mPa·s | viscosity (293.15 K, x1 = 0.4922): 48.62 mPa·s | viscosity (293.15 K, x1 = 0.5996): 72 mPa·s | viscosity (293.15 K, x1 = 0.6966): 100.9 mPa·s | viscosity (293.15 K, x1 = 0.7973): 143.7 mPa·s | viscosity (293.15 K, x1 = 0.8997): 206 mPa·s | viscosity (298.15 K, x1 = 0.1009): 6.04 mPa·s | viscosity (298.15 K, x1 = 0.3012): 15.05 mPa·s | viscosity (298.15 K, x1 = 0.3985): 24.76 mPa·s | viscosity (298.15 K, x1 = 0.4922): 36.87 mPa·s | viscosity (298.15 K, x1 = 0.5996): 53.3 mPa·s | viscosity (298.15 K, x1 = 0.6966): 73 mPa·s | viscosity (298.15 K, x1 = 0.7973): 101.8 mPa·s | viscosity (298.15 K, x1 = 0.8997): 142.7 mPa·s | viscosity (298.15 K, x1 = 1): 180.6 mPa·s | viscosity (303.15 K, x1 = 0.1009): 4.95 mPa·s | viscosity (303.15 K, x1 = 0.3012): 12.31 mPa·s | viscosity (303.15 K, x1 = 0.3985): 19.81 mPa·s | viscosity (303.15 K, x1 = 0.4922): 29.28 mPa·s | viscosity (303.15 K, x1 = 0.6966): 56.62 mPa·s | viscosity (303.15 K, x1 = 0.7973): 77.6 mPa·s | viscosity (303.15 K, x1 = 0.8997): 107.6 mPa·s | viscosity (303.15 K, x1 = 1): 132.1 mPa·s | viscosity (308.15 K, x1 = 0.1009): 4.21 mPa·s | viscosity (308.15 K, x1 = 0.1996): 6.25 mPa·s | viscosity (308.15 K, x1 = 0.3012): 10.23 mPa·s | viscosity (308.15 K, x1 = 0.4922): 23.47 mPa·s | viscosity (308.15 K, x1 = 0.8997): 80.8 mPa·s | viscosity (308.15 K, x1 = 1): 98.3 mPa·s | viscosity (313.15 K, x1 = 0.1009): 3.64 mPa·s | viscosity (313.15 K, x1 = 0.1996): 5.27 mPa·s | viscosity (313.15 K, x1 = 0.3012): 8.32 mPa·s | viscosity (313.15 K, x1 = 0.3985): 13.02 mPa·s | viscosity (313.15 K, x1 = 0.4922): 18.84 mPa·s | viscosity (313.15 K, x1 = 0.5996): 26.78 mPa·s | viscosity (313.15 K, x1 = 0.7973): 47.36 mPa·s | viscosity (313.15 K, x1 = 0.8997): 61.67 mPa·s | viscosity (313.15 K, x1 = 1): 73.5 mPa·s | viscosity (318.15 K, x1 = 0.1996): 4.57 mPa·s | viscosity (318.15 K, x1 = 0.3012): 7.01 mPa·s | viscosity (318.15 K, x1 = 0.3985): 10.65 mPa·s | viscosity (318.15 K, x1 = 0.6966): 28.53 mPa·s | viscosity (318.15 K, x1 = 0.8997): 47.83 mPa·s | viscosity (318.15 K, x1 = 1): 55.86 mPa·s

CS(C)=O + COCCCC[n+]1ccn(C)c1.NCC(=O)[O-]
viscosity (288.15 K, x2 = 0): 2.47 mPa·s | viscosity (293.15 K, x2 = 0): 2.21 mPa·s | viscosity (298.15 K, x2 = 0): 1.99 mPa·s | viscosity (303.15 K, x2 = 0): 1.81 mPa·s | viscosity (313.15 K, x2 = 0): 1.51 mPa·s | viscosity (318.15 K, x2 = 0): 1.39 mPa·s
